According to patent US20240124528A1, “ANTAGONIST OF INTERLEUKIN-17B RECEPTOR (IL-17RB) AND USE THEREOF” (Academia Sinica, priority 2020, published 2024):

Tested on: pancreatic cancer cells expressing IL-17RB
Assay: Soft agar colony formation (SACF) assay after peptide treatment
Type: cell-based, human
Conditions: CFPAC1 and PDX-derived cells treated with peptide
Description: FIGS. 7A to 7J include charts showing that disruption of the interaction between IL-17RB and MLK4 by the loop peptide blocks oncogenic progression. (FIG. 7A) Peptides TAT48-57 (Control) (SEQ ID NO: 21) and TAT-IL-17RB403-416 (Loop) (SEQ ID NO: 30) used for the following experiments. (FIG. 7B) Immunoblotting analysis of IL-17RB binding to MLK4 with Loop peptide treatment. 293T cells expressing Flag-MLK4 and HA-IL-17RB were pretreated with the control and loop peptides with different dose (0, 0.1, 1, 10, 50, 100 ng/ml) for 30 mins, and then added rIL-17B for 30 mins. […] CCL20 and TFF/mRNA expression of these cells were measured by RT-qPCR (n=3) (FIG. 7D), the same cells were for invasion assay (n=4) (FIG. 7E) and SACF assay (n=4) (FIG. 7F). […] (FIG. 7I) The experimental EKP mice (n=7 for each group) were euthanized at Day 56, and the metastatic tumor nodules in the lungs were counted. […]
FIGS. 19A to 19D include charts showing that treatment with the loop peptide suppresses aggressive behavior of patient-derived pancreatic tumor cells. […] (FIG. 19C and FIG. 19D) These cells were measured by RT-qPCR for the cytokine gene mRNA expression (n=3), or for Invasion assay (n=4) (FIG. 19C) and SACF assay (n=4) (FIG. 19D). […]
Soft agar colony formation assay was performed as described (7). […] Crystal violet-stained colonies greater than 50 μm in size were counted and analyzed objectively by light microscopy.

Sequence: RKKRRQRRRVCDGTCGKSEGSPS (IL-17RB inhibitory peptide, fusion protein) [loop peptide]
- colony formation ability (SACF): diminished
